Patent EP4578857A1, “CRYPTOLEPINE SALT DERIVATIVE, AND PREPARATION METHOD THEREFOR AND USE THEREOF” (Nankai University, priority 2023, dated 2025)
Like-named read-outs stand apart in the source and are kept apart here.

What was measured:
Format in all cases: in vivo
[1] = tested on: tobacco Mosaic virus (TMV); experiment: Anti-TMV activity: living passivation activity test; settings: for inhibition at 500 µg/mL: Tobacco mosaic virus, read-out: Relative inhibition rate (%) Living passivation activity test; for Relative inhibition rate (%) Living passivation activity test: Treatment dose 500 mg/L, sample mixed with virus juice for 30min, then inoculated on tobacco Xanthi nc, virus 20µg/mL, 3 days
Protocol: (§1) Determination of anti-tobacco Mosaic virus (TMV) activity by the following procedure:
(§2) The virus crude extract was centrifuged with polyethylene glycol at twice and refrigerated at 4°C for use. The absorbance of 260nm wavelength was determined by ultraviolet spectrophotometer, and the virus concentration was calculated according to the formula. Virus concentration(mg/ml) = (A260 × dilution ratio)(/E)^0.10 1cm^260nm . [formula]
(§3) After weighing, cryptolepine salt derivative, ningnanmycin and the original drug of ribavirin were dissolved in DMF to obtain 1×10^5µg/mL mother solution, and then diluted to the required concentration with 1‰ Tween 80 aqueous solution.
Select the 3-5 leaf stage of tobacco Xanthi nc with uniform growth, mix the test sample agent with the same volume of virus juice to passivate for 30min, friction inoculation, virus concentration 20µg/mL, the leaf was washed with running water after inoculation, repeat 3 times, set 1‰ Tween 80 aqueous solution as control. 3 days later, the number of disease spots was calculated. [formula]
Anti-tobacco Mosaic virus passivation activity test of all compounds was at a treatment dose of 500µg/mL. The positive control was the commercial anti-plant virus agent viriazole.

[2] = tested on: tobacco Mosaic virus (TMV); experiment: Anti-TMV activity: live treatment effect; settings: for inhibition at 500 µg/mL: Tobacco mosaic virus, 72 h, read-out: Relative inhibition rate (%) Live treatment effect; for Relative inhibition rate (%) Live treatment effect: Treatment dose 500 mg/L, tobacco Xanthi nc inoculated (virus 10µg/mL), then sprayed, disease spots counted after 3 days
Protocol: as §1, §2, §3
Select the 3-5 leaf stage of tobacco Xanthi nc with uniform growth, use a brush to vaccinate the virus in the whole leaf, the virus concentration is 10µg/mL, and the leaf was washed with running water after inoculation. After the leaves were dried, the whole plant was sprayed with test sample, repeated 3 times every treatment, and 1‰ Tween 80 aqueous solution was set as control. After 3 days, the number of disease spots was recorded and the prevnetion and control effect was calculated.

[3] = tested on: tobacco Mosaic virus (TMV); experiment: Anti-TMV activity: live protection function; settings: for inhibition at 500 µg/mL: Tobacco mosaic virus, read-out: Relative inhibition rate (%) Live protection function; for antiTMV activity / TMV activity: 500µg/mL, Table 4 (all three modes); for antiTMV activity: compared with commercial Ningnanmycin; for TMV activity: compared with ribavirin; for Relative inhibition rate (%) Live protection function: Treatment dose 500 mg/L, tobacco Xanthi nc sprayed 24h before inoculation, virus 10µg/mL, disease spots counted after 3 days
Protocol: as §1, §2, §3
Select the 3-5 leaf stage of tobacco Xanthi nc with uniform growth, spray the whole plant, repeat each treatment 3 times, and set 1‰ Tween80 aqueous solution as control. 24h later, the leaf surface was coated with emery (500 mesh), the disease venom was dipped with a brush, and the whole leaf surface was gently rubbed twice along the direction of the branch pulse by using the brush, the leaf was supported by palm of hand, the virus concentration was 10µg/mL, and the leaf was washed by water after inoculation. After 3 days, the number of disease spots was recorded and the prevnetion and control effect was calculated.

[4] = tested on: rice sheath blight strains; experiment: Bactericidal activity test: resistance to rice sheath blight (live pot test); settings: for pest or weed control at 400 µg/mL: Oryza sativa, 144 h
Protocol: Bactericidal activity test, the determination procedure is as follows: Test of resistance to rice sheath blight: Select uniformly growing rice seedlings and spray them on the leaves at the set concentration, set a water sprayring group as blank control, every treatment was repeated twice. After 24h, the rice seedlings were inoculated with rice sheath blight strains and placed at room temperature (25±4°C) for normal management after inoculation. The prevention and control effect was investigated by visual inspection 6 days after inoculation.

[5] = read-out: Resistance to rice sheath blight (%)/400mg/L
[6] = read-out: bactericidal activity against rice sheath blight
[7] = 400mg/L leaf spray on rice seedlings, inoculated after 24h, visual inspection 6 days after inoculation, read-out: Resistance to rice sheath blight (%)/400mg/L
[8] = 400mg/L leaf spray on rice seedlings, inoculated after 24h, visual inspection 6 days after inoculation

SMILES | inhibition at 500 µg/mL [1] | inhibition at 500 µg/mL [2] | inhibition at 500 µg/mL [3] | pest or weed control at 400 µg/mL [4, 5] | antiTMV activity [3] | TMV activity [3] | pest or weed control at 400 µg/mL [4, 6] | pest or weed control at 400 µg/mL [4, 7] | Relative inhibition rate (%) Living passivation activity test [1] | Relative inhibition rate (%) Live treatment effect [2] | Relative inhibition rate (%) Live protection function [3] | Resistance to rice sheath blight (%)/400mg/L [4, 8] | pest or weed control at 400 µg/mL ([4]; live pot test, summary of Table 5 (400mg/L), read-out: bactericidal activity against rice sheath blight)
COc1ccc2c(c1)cc1c(c3ccccc3n1S(=O)(=O)c1ccc(C)cc1)[n+]2C [Example 10] | 19.1 ± 0.2% | 10.2 ± 0.7% | 17 ± 1% | 30% |  |  |  |  |  |  |  |  | 
Cc1ccc(S(=O)(=O)n2c3ccccc3c3c2cc2cc(F)ccc2[n+]3C)cc1 [Example 11] | 22.3 ± 1% | 30.1 ± 1.1% | 27.6 ± 1.4% | 40% |  |  |  |  |  |  |  |  | 
Cc1ccc(S(=O)(=O)n2c3ccccc3c3c2cc2cc(Cl)ccc2[n+]3C)cc1 [Example 12] | 20.3 ± 2.1% | 19.1 ± 1% | 23.4 ± 3.3% | 40% |  |  |  |  |  |  |  |  | 
Cc1ccc(S(=O)(=O)n2c3ccccc3c3c2cc2cc(Br)ccc2[n+]3C)cc1 [Example 13] | 46.1 ± 3.9% | 52 ± 2.4% | 50.8 ± 1% | 35 ± 5% | comparable to that of commercial Ningnanmycin | better TMV activity than the ribavirin |  |  |  |  |  |  | 
Cc1ccc(S(=O)(=O)n2c3ccccc3c3c2cc2cc(C(F)(F)F)ccc2[n+]3C)cc1 [Example 14] | 20.1 ± 1.5% | 18.9 ± 1.2% | 15.3 ± 1.2% | 60% |  |  | > 50% |  |  |  |  |  | 
COC(=O)c1ccc2c(c1)cc1c(c3ccccc3n1S(=O)(=O)c1ccc(C)cc1)[n+]2C [Example 15] | 20 ± 1% | 22.1 ± 0.2% | 15.6 ± 0.4% | 40% |  |  |  |  |  |  |  |  | 
Cc1ccc(S(=O)(=O)n2c3ccccc3c3c2cc2ccc(C)cc2[n+]3C)cc1 [Example 16] | 18.9 ± 0.8% | 30.1 ± 1.1% | 28.1 ± 4.5% | 95 ± 5% |  |  | > 95% |  |  |  |  |  | 
Cc1ccc(S(=O)(=O)n2c3ccccc3c3c2cc2ccc(Cl)cc2[n+]3C)cc1 [Example 17] | 33.1 ± 1.1% | 23.5 ± 2.1% | 30.2 ± 1.7% | 40% |  |  |  |  |  |  |  |  | 
Cc1ccc(S(=O)(=O)n2c3ccccc3c3c2cc2ccccc2[n+]3CC2CC2)cc1 [Example 18] | 40.8 ± 2.9% | 38.7 ± 2.4% | 45.6 ± 0.9% | 45 ± 5% |  | better TMV activity than the ribavirin | > 50% |  |  |  |  |  | 
Cc1ccc(S(=O)(=O)n2c3ccccc3c3c2cc2ccccc2[n+]3CC2CCCCC2)cc1 [Example 19] | 44.2 ± 3.4% | 42.4 ± 4.9% | 47 ± 2.8% | 20% |  | better TMV activity than the ribavirin |  |  |  |  |  |  | 
Cc1ccc(S(=O)(=O)n2c3ccccc3c3c2cc2ccccc2[n+]3CC(C)(C)C)cc1 [Example 20] | 53 ± 2.1% | 48.5 ± 3% | 51.3 ± 3.5% | 55 ± 5% | comparable to that of commercial Ningnanmycin | better TMV activity than the ribavirin | > 50% |  |  |  |  |  | 
Cc1ccc(S(=O)(=O)n2c3ccccc3c3c2cc2ccccc2[n+]3Cc2ccccc2)cc1 [Example 21] | 35.9 ± 4% | 32.3 ± 1.8% | 41.4 ± 3.9% | 40% |  | better TMV activity than the ribavirin |  |  |  |  |  |  | 
C[n+]1c2ccccc2cc2c1c1ccccc1n2S(=O)(=O)c1ccccc1 [Example 22] | 15.5 ± 1.1% | 18.2 ± 1.1% | 14 ± 1.1% | 45 ± 5% |  |  | > 50% |  |  |  |  |  | 
CCCNc1c2ccccc2[n+](C)c2c1[nH]c1ccccc12 [Example 23] | 35.2 ± 1.1% | 30.1 ± 1% | 33 ± 2.9% |  |  |  |  | 30% |  |  |  |  | 
CCCCCNc1c2ccccc2[n+](C)c2c1[nH]c1ccccc12 [Example 24] |  |  |  |  |  |  |  |  | 35.2±1.0% | 30.3±0.8% | 36.9±3.7% | 30±0% | 
CCCCCCCCCCCCNc1c2ccccc2[n+](C)c2c1[nH]c1ccccc12 [Example 25] |  |  |  |  |  |  |  |  | 35.1±0.1% | 22.1±1.1% | 27.3±3.0% | 20±0% | 
CC(C)CCNc1c2ccccc2[n+](C)c2c1[nH]c1ccccc12 [Example 26] | 37 ± 3% | 45.4 ± 1.9% | 43.1 ± 3.4% |  |  | better TMV activity than the ribavirin |  | 35 ± 5% |  |  |  |  | 
CCCCC(CC)CNc1c2ccccc2[n+](C)c2c1[nH]c1ccccc12 (stereo not drawn) [Example 27] | 47.9 ± 1.5% | 46.3 ± 4.2% | 52.1 ± 2.8% |  | comparable to that of commercial Ningnanmycin | better TMV activity than the ribavirin |  | 30% |  |  |  |  | 
C[n+]1c2ccccc2c(NCC2CC2)c2[nH]c3ccccc3c21 [Example 28] | 25.3 ± 1.2% | 19.6 ± 0.2% | 20.5 ± 1.7% |  |  |  |  | 60% |  |  |  |  | > 50%
C[n+]1c2ccccc2c(NC2CCCC2)c2[nH]c3ccccc3c21 [Example 29] | 30.5 ± 0.9% | 36.5 ± 2.3% | 38.6 ± 4.6% |  |  |  |  | 30% |  |  |  |  | 
C[n+]1c2ccccc2c(NCC2CCCCC2)c2[nH]c3ccccc3c21 [Example 30] | 30 ± 0.8% | 21.5 ± 1.1% | 20.9 ± 2.9% |  |  |  |  | 35 ± 5% |  |  |  |  | 
C[n+]1c2ccccc2c(NCCCC2CCCCC2)c2[nH]c3ccccc3c21 [Example 31] | 30.5 ± 0.2% | 28.9 ± 1.1% | 29.5 ± 1.3% |  |  |  |  | 25 ± 5% |  |  |  |  | 
C[n+]1c2ccccc2c(NCCN)c2[nH]c3ccccc3c21 [Example 32] | 28.7 ± 2.1% | 30.1 ± 0.4% | 25.1 ± 4.3% |  |  |  |  | 30% |  |  |  |  | 
